Test results taken from PMC9448818 (Translational Psychiatry, 2022).

Assay: Dose-adjusted serum concentrations of drug and metabolite (LC-MS/MS) by CYP2C19 and CYP2D6 metabolizer group
Type: in vivo, human
Conditions: for B, ARI concentrations in serum, CYP2D6 IM+PM / B, DHA concentrations in serum, CYP2D6 IM+PM: vs NM, dose-adjusted
Description: The 16-week study protocol consisted of two phases following screening and baseline visits. […] Blood samples were collected on Weeks 2, 10, and 16 to measure medication levels and on Week 4 for pharmacogenetic analyses. The methods used for the quantification of serum levels of drug and metabolite concentrations is described in the Supplementary Methods.
Serum concentrations were adjusted for dosage (i.e., ng/mL/mg). Sampling time (i.e., hours since the last dose) was entered as a covariate in the regression models to account for when the medication was taken.
The CYP2C19 metabolizer group was not included as a fixed effect covariate, as CYP2C19 is not known to be involved in the metabolism of ARI. […]
Collection of blood samples and quantification of serum drug and metabolite concentrations Participants self-reported the time at which the last dosage of the study medication was taken during the collection of the blood samples. […]
major metabolites, (S-DCT) and (DHA), were performed at the CAMH Clinical Laboratory using LC-MS/MS technology. Briefly, a mix of deuterated internal standards (Cerilliant) was added to 100 µL of each serum specimen, calibrator (Cerilliant) and quality control (MassCheck Antidepressants/Neuroleptics, Level 1 and Level 2). Proteins were precipitated with 300 µL of 9:1 Acetonitrile:Methanol (Sigma-Aldrich) followed by 5 min centrifugation at 9000 rpm. 25 µL of each supernatant was diluted with 200 µL of 0.1% Formic acid (Sigma-Aldrich) and then analyzed on the LC-MS/MS platform consisting of ThermoFisher TSQ Quantum Ultra mass spectrometer coupled with ThermoFisher Surveyor LC pump and HTC PAL autosampler fitted with a Kinetex F5 2.6 µm, 100 x 2.1 mm column (Phenomenex). Six minute gradient elution with 0.1% Formic Acid (mobile phase A) and Acetonitrile (mobile phase B) was applied. Collision energies ranged from 14 to […]
calibration curve ranging from 10 to 1000 ng/mL for each analyte.
Vendor nominal means for quality controls were used to assess the assay accuracy for each of the four analytes […]
precision was considered acceptable assay performance.
Data was analyzed with ThemoFisher XCalibur software.

| B, ARI concentrations in serum, CYP2D6 IM+PM (Week 10, ESC+ARI arm) | B, ARI concentrations in serum, CYP2D6 IM+PM (Week 16, ESC+ARI arm) | lower DHA, CYP2D6 IM + PMs relative to NMs (Week 10, ESC + ARI) | B, DHA concentrations in serum, CYP2D6 IM+PM (Week 10, ESC+ARI arm) | B, DHA concentrations in serum, CYP2D6 IM+PM (Week 16, ESC+ARI arm) | SMILES |
| --- | --- | --- | --- | --- | --- |
| -2.48 | 1.54 |  |  |  | O=C1CCc2ccc(OCCCCN3CCN(c4cccc(Cl)c4Cl)CC3)cc2N1 [ARI, Aripiprazole] |
|  |  | 17.4% | -0.99 | -0.47 | O=c1ccc2ccc(OCCCCN3CCN(c4cccc(Cl)c4Cl)CC3)cc2[nH]1 [DHA, dehydroaripiprazole] |
